From patent US20230405140A1, “ANTI-CD56 ANTIBODY-DRUG CONJUGATES AND THEIR USE IN THERAPY” (MCSAF INSIDE ONCOLOGY, priority 2020, published 2023)
Non-standard residues stand in square brackets, D forms with d. Residues, ends and D or L forms follow the SMILES beside them. *: point of attachment. Dolaproine = CO[C@@H]([C@@H]1CCCN1)[C@@H](C)C(=O)O; Dil = CC[C@H](C)[C@H](NC)[C@@H](CC(=O)O)OC; X1 = C[C@@H](N*)[C@@H](O)c1ccccc1; NMeV = CN[C@H](C(=O)O)C(C)C

What was measured:
Assay in all cases: XTT assay, ADC-mediated cytotoxicity
Format in all cases: cell-based
[1] = tested on: MKL-1 CRISPR CD56; details: 4 days, CD56− cells, read-out: MKL-1 CRISPR CD56 n = 3 IC50
[2] = tested on: WaGa CRISPR CD56; details: 4 days, CD56− cells, read-out: WaGa CRISPR CD56 n = 3 IC50
Method: (§1) To evaluate cell viability and cellular metabolic activity, XTT assays were performed according to standard protocols. WaGa, PeTa, H69, H209, H660 cell lines were plated in 3 replicates in a 96-well plate with 5.10^4 cells/well. […] Untreated cells were used as viability reference. Cells treated with 1% Triton X100 were used as cell death positive control. After 4 days, 25 μL XTT reagent at 1 mg/mL (Alfa Aesar, thermo Fisher) with N-methyl dibenzopyrazine methyl sulfate (PMS) activator (25 μM) was added per well and absorbance was measured at 450 nm after 4 h incubation. Absorbance at 620 nm was used as a reference. Three independent experiments have been performed.

[3] = tested on: PeTa; details: 4 days, read-out: PeTa n = 3 IC50
Method: as §1

[4] = tested on: H69; details: 4 days, read-out: H69 n = 3 IC50
Method: as §1

[5] = tested on: WaGa; details: 4 days, read-out: WaGa n = 3 IC50
Method: as §1

[6] = tested on: H209; details: 4 days, read-out: H209 n = 3 IC50
Method: as §1

`CC[C@H](C)[C@@H]([C@@H](CC(=O)N1CCC[C@H]1[C@H](OC)[C@@H](C)C(=O)N[C@H](C)[C@@H](O)c1ccccc1)OC)N(C)C(=O)[C@@H](NC(=O)[C@@H](NC)C(C)C)C(C)C` [MMAE, monomethyl auristatin E, reference compound] (H-[NMeV]V[Dil][Dolaproine]-X1) was tested, and the IC50 [1] was 0.856 nM, the IC50 [2] was 0.942 nM and the IC50 [3] was 1.11 nM. It also gave an IC50 [4] of 0.888 nM, an IC50 [5] of 3.07 nM and an IC50 [6] of 2.24 nM.
